Results from ChEMBL document CHEMBL1201862, “PubChem BioAssay data set” (2004).
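96-well plates; 48 h exposure; 5 concentrations. Endpoints by linear interpolation between flanking doses. Not reached: highest tested concentration assigned. GI50: concentration for 50% inhibition of growth.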 Activity calls are given as the source filed them. No stated cut-off is given here; in the data, active = GI50 up to about 1.1 µM and inactive = higher.

Experiments:
Test in all cases: NCI anticancer screen, dose series, 48 h
[1] = tested on: 786-0
[2] = tested on: A498
[3] = tested on: A549
[4] = tested on: ACHN
[5] = tested on: BT-549
[6] = tested on: CAKI-1
[7] = tested on: COLO 205
[8] = tested on: DU-145
[9] = tested on: HCC 2998
[10] = tested on: HCT-116
[11] = tested on: HCT-15
[12] = tested on: HOP-92
[13] = tested on: HT-29
[14] = tested on: Hs-578T
[15] = tested on: KM12
[16] = tested on: LOX IMVI
[17] = tested on: MDA-MB-231
[18] = tested on: MDA-MB-435
[19] = tested on: MDA-N
[20] = tested on: Malme-3M
[21] = tested on: NCI-H226
[22] = tested on: NCI-H23
[23] = tested on: NCI-H460
[24] = tested on: NCI-H522
[25] = tested on: NCI/ADR-RES
[26] = tested on: OVCAR-4
[27] = tested on: OVCAR-8
[28] = tested on: PC-3
[29] = tested on: RPMI-8226
[30] = tested on: SF-268
[31] = tested on: SK-MEL-28
[32] = tested on: SK-MEL-2
[33] = tested on: SK-MEL-5
[34] = tested on: SN12C
[35] = tested on: SNB-19
[36] = tested on: SW-620
[37] = tested on: T47D
[38] = tested on: TK-10
[39] = tested on: U-251
[40] = tested on: UACC-257
[41] = tested on: UACC-62
[42] = tested on: UO-31
[43] = tested on: CCRF-CEM
[44] = tested on: EKVX
[45] = tested on: HL-60
[46] = tested on: IGROV-1
[47] = tested on: M14
[48] = tested on: MCF7
[49] = tested on: MOLT-4
[50] = tested on: OVCAR-3
[51] = tested on: OVCAR-5
[52] = tested on: SF-295
[53] = tested on: SF-539
[54] = tested on: SK-OV-3
[55] = tested on: SNB-75
[56] = tested on: HOP-62
[57] = tested on: K562
[58] = tested on: RXF 393

Cn1ccc(C(=O)NCCOCCNC(=O)c2ccn(C)c(=O)c2O)c(O)c1=O
GI50 [1]: > 100 µM (inactive)
GI50 [2]: > 100 µM (inactive)
GI50 [3]: > 100 µM (inactive)
GI50 [4]: > 100 µM (inactive)
GI50 [5]: > 100 µM (inactive)
GI50 [6]: > 100 µM (inactive)
GI50 [7]: > 100 µM (inactive)
GI50 [8]: > 100 µM (inactive)
GI50 [9]: > 100 µM (inactive)
GI50 [10]: > 100 µM (inactive)
GI50 [11]: > 100 µM
GI50 [12]: > 100 µM (inactive)
GI50 [13]: > 100 µM (inactive)
GI50 [14]: > 100 µM (inactive)
GI50 [15]: 18.2 µM (inactive)
GI50 [16]: > 100 µM (inactive)
GI50 [17]: > 100 µM (inactive)
GI50 [18]: > 100 µM (inactive)
GI50 [19]: > 100 µM (inactive)
GI50 [20]: > 100 µM (inactive)
GI50 [21]: > 100 µM (inactive)
GI50 [22]: > 100 µM (inactive)
GI50 [23]: > 100 µM (inactive)
GI50 [24]: > 100 µM (inactive)
GI50 [25]: > 100 µM (inactive)
GI50 [26]: > 100 µM (inactive)
GI50 [27]: > 100 µM (inactive)
GI50 [28]: > 100 µM (inactive)
GI50 [29]: > 100 µM (inactive)
GI50 [30]: > 100 µM (inactive)
GI50 [31]: > 100 µM (inactive)
GI50 [32]: > 100 µM (inactive)
GI50 [33]: > 100 µM (inactive)
GI50 [34]: > 100 µM (inactive)
GI50 [35]: > 100 µM (inactive)
GI50 [36]: > 100 µM (inactive)
GI50 [37]: > 100 µM (inactive)
GI50 [38]: > 100 µM (inactive)
GI50 [39]: > 100 µM (inactive)
GI50 [40]: > 100 µM (inactive)
GI50 [41]: > 100 µM (inactive)
GI50 [42]: > 100 µM (inactive)

C=C1[C@@H]([C@@]2(C)C=CC(=O)C(C)(C)[C@@H]2CC(=O)OC)CC[C@@]2(C)[C@H](c3ccoc3)OC(=O)[C@H]3O[C@]132 [ANDIROBIN]
GI50 [1]: > 100 µM (inactive)
GI50 [2]: 79.4 µM (inactive)
GI50 [3]: > 100 µM (inactive)
GI50 [4]: > 100 µM (inactive)
GI50 [5]: > 100 µM (inactive)
GI50 [6]: > 100 µM (inactive)
GI50 [43]: > 100 µM (inactive)
GI50 [7]: 93.1 µM (inactive)
GI50 [8]: > 100 µM (inactive)
GI50 [44]: > 100 µM (inactive)
GI50 [9]: > 100 µM (inactive)
GI50 [10]: > 100 µM (inactive)
GI50 [11]: > 100 µM
GI50 [45]: 62.8 µM (inactive)
GI50 [12]: > 100 µM (inactive)
GI50 [13]: > 100 µM (inactive)
GI50 [14]: > 100 µM (inactive)
GI50 [46]: > 100 µM (inactive)
GI50 [15]: > 100 µM (inactive)
GI50 [16]: > 100 µM (inactive)
GI50 [47]: > 100 µM (inactive)
GI50 [48]: > 100 µM (inactive)
GI50 [17]: > 100 µM (inactive)
GI50 [18]: > 100 µM (inactive)
GI50 [19]: > 100 µM (inactive)
GI50 [49]: 83.6 µM (inactive)
GI50 [20]: > 100 µM (inactive)
GI50 [21]: > 100 µM (inactive)
GI50 [22]: > 100 µM (inactive)
GI50 [23]: > 100 µM (inactive)
GI50 [24]: > 100 µM (inactive)
GI50 [25]: > 100 µM (inactive)
GI50 [50]: > 100 µM (inactive)
GI50 [26]: > 100 µM (inactive)
GI50 [51]: > 100 µM (inactive)
GI50 [27]: > 100 µM (inactive)
GI50 [28]: 40.7 µM (inactive)
GI50 [30]: > 100 µM (inactive)
GI50 [52]: 87.5 µM (inactive)
GI50 [53]: > 100 µM (inactive)
GI50 [31]: > 100 µM (inactive)
GI50 [32]: > 100 µM (inactive)
GI50 [33]: 68.2 µM (inactive)
GI50 [54]: > 100 µM (inactive)
GI50 [34]: > 100 µM (inactive)
GI50 [35]: > 100 µM (inactive)
GI50 [55]: 46.2 µM (inactive)
GI50 [36]: > 100 µM (inactive)
GI50 [37]: 94.4 µM (inactive)
GI50 [38]: > 100 µM (inactive)
GI50 [39]: > 100 µM (inactive)
GI50 [40]: > 100 µM (inactive)
GI50 [41]: 77.4 µM (inactive)
GI50 [42]: 73.8 µM (inactive)

Nc1n[n+](CC(=O)c2ccccc2)c2sc(-c3ccccc3)nn12
GI50 [1]: > 100 µM (inactive)
GI50 [2]: > 100 µM (inactive)
GI50 [3]: > 100 µM (inactive)
GI50 [4]: > 100 µM (inactive)
GI50 [5]: > 100 µM (inactive)
GI50 [6]: > 100 µM (inactive)
GI50 [43]: 45.7 µM (inactive)
GI50 [7]: > 100 µM (inactive)
GI50 [8]: > 100 µM (inactive)
GI50 [44]: > 100 µM (inactive)
GI50 [10]: 44.2 µM (inactive)
GI50 [11]: 75.2 µM
GI50 [56]: > 100 µM (inactive)
GI50 [13]: 55 µM (inactive)
GI50 [14]: > 100 µM (inactive)
GI50 [46]: > 100 µM (inactive)
GI50 [57]: 82.4 µM (inactive)
GI50 [15]: 46.1 µM (inactive)
GI50 [16]: 54 µM (inactive)
GI50 [47]: 61.2 µM (inactive)
GI50 [48]: 51.4 µM (inactive)
GI50 [17]: > 100 µM (inactive)
GI50 [18]: 27.7 µM (inactive)
GI50 [19]: 84.7 µM (inactive)
GI50 [49]: 90.6 µM (inactive)
GI50 [20]: > 100 µM (inactive)
GI50 [21]: > 100 µM (inactive)
GI50 [22]: > 100 µM (inactive)
GI50 [23]: > 100 µM (inactive)
GI50 [24]: 95.5 µM (inactive)
GI50 [25]: > 100 µM (inactive)
GI50 [50]: > 100 µM (inactive)
GI50 [26]: > 100 µM (inactive)
GI50 [51]: > 100 µM (inactive)
GI50 [27]: 78.2 µM (inactive)
GI50 [28]: 73.8 µM (inactive)
GI50 [29]: 60 µM (inactive)
GI50 [58]: > 100 µM (inactive)
GI50 [30]: 18.8 µM (inactive)
GI50 [52]: 64.7 µM (inactive)
GI50 [53]: 74.8 µM (inactive)
GI50 [31]: > 100 µM (inactive)
GI50 [32]: > 100 µM (inactive)
GI50 [33]: 48.6 µM (inactive)
GI50 [54]: > 100 µM (inactive)
GI50 [34]: > 100 µM (inactive)
GI50 [35]: > 100 µM (inactive)
GI50 [55]: > 100 µM (inactive)
GI50 [36]: 36.8 µM (inactive)
GI50 [37]: > 100 µM (inactive)
GI50 [38]: > 100 µM (inactive)
GI50 [39]: > 100 µM (inactive)
GI50 [40]: > 100 µM (inactive)
GI50 [41]: 13.9 µM (inactive)
GI50 [42]: 79.3 µM (inactive)
